Counter-ions that a name gives are not always drawn.
Assays:
CDK2/cyclin A = target: T1, CDK2/cyclin A (Homo sapiens, UniProt P24941); assay: Inhibition of CDK2/cyclin A retinoblastoma kinase activity (Ki; % inhibition); format: biochemical; conditions: for Ki: apparent Ki, CDK2/cyclin A, Rb substrate
T1 construct: made in house; host or cells: CDK2: insect cells (baculovirus); cyclin A: E. coli
In short: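 Apparent Ki values came from fitting concentration-dependent activity data to competitive (or competitive tight-binding) models, and % inhibition from single 30 nM screens of library compounds. Activity was measured as ³²P/³³P incorporation from 25 μM ATP into an Rb substrate by 10 or 19 nM CDK2/delta cyclin A at 30 °C over 60–75 min, pH 7.4.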

human CDK4/cyclin D3 = target: T2, human CDK4/cyclin D3 (Homo sapiens, UniProt P11802); assay: Inhibition of CDK4/cyclin D retinoblastoma kinase activity (Ki; % inhibition); format: biochemical; conditions: for Ki: apparent Ki, CDK4/cyclin D3, Rb substrate
T2 construct: made in house; host or cells: insect cells co-infected with baculovirus vectors
In short: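 Radiometric filter-binding read-out: Rb residues 386-928 phosphorylated by 5 nM CDK4/cyclin D3(1-264) from baculovirus-infected insect cells, 25 μM ATP, HEPES pH 7.4, 30 °C. Run 20 min, or 60 min for tight-binding inhibitors. Screening at 30 nM theoretical compound; apparent Ki by competitive-inhibition fitting.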

HCT-116 cell line = assay: Inhibition of cell growth, MTT tetrazolium salt assay; format: cell-based; conditions: for IC50: Homo sapiens, HCT-116, 120 h, MTT, three to five days; for HCT-116 % Inhibition at 0.1 μM: 0.1 μM compound
In short: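 HCT-116 cells in McCoy's 5A were dosed 4 h after plating with compounds in 0.5% DMSO and grown 3–5 days at 37 °C. Then 0.2 mg/mL MTT was added for 4 h and formazan absorbance read at 540 nm. IC50/IC90 came from semi-log plots against DMSO-only controls.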

[1] = HCT-116 cells, 0.25 μM compound

T2 sequence (P11802 whole entry): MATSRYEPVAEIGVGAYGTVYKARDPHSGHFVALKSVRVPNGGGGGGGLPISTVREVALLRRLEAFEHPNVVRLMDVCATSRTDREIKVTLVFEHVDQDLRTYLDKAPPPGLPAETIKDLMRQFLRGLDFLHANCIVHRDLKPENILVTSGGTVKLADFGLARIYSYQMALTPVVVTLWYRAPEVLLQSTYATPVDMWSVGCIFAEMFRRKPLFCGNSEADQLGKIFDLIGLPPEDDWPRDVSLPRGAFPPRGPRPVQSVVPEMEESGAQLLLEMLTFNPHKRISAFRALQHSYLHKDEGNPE
T2 sequence (P30281 1-264 partner limits assumed): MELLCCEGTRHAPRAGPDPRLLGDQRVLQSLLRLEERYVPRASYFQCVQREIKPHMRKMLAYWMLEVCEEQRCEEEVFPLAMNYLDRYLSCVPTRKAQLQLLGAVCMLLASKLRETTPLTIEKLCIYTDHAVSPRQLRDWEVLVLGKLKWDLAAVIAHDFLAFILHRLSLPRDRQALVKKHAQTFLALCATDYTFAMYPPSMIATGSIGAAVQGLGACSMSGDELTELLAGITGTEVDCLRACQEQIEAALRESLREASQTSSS

IC50 (HCT-116 cell line)	Ki (CDK2/cyclin A)	Ki (human CDK4/cyclin D3)	CDK2 % Inhibition at 0.03 μM (CDK2/cyclin A; at 0.03 μM)	CDK4 % Inhibition at 0.03 μM (human CDK4/cyclin D3; at 0.03 μM)	Compound	HCT-116 % Inhibition at 0.25 μM (HCT-116 cell line; HCT-116, at 0.25 μM)	further results
1000 nM	9.4 nM	17 nM	–	–	Nc1nc(Nc2ccc(C(=O)NCCNc3ccccc3)c(O)c2)sc1C(=O)c1c(F)cccc1F [Example D1, 4-[4-Amino-5-(2,6-difluoro-benzoyl)-thiazol-2-ylamino]-2-hydroxy-N-(2-phenylamino-ethyl)-benzamide]	–	–
580 nM	51 nM	25 nM	–	–	CC(CN(C)C)NC(=O)c1ccc(Nc2nc(N)c(C(=O)c3c(F)cccc3F)s2)cc1O (stereo not drawn) [Example D2, 4-[4-Amino-5-(2,6-difluoro-benzoyl)-thiazol-2-ylamino]-N-(2-dimethylamino-1RS-methyl-ethyl)-2-hydroxy-benzamide]	–	–
–	–	–	−3%	−10%	CCCN(CC1CC1)C(=O)c1ccc(Nc2nc(N)c(C(=O)c3c(F)cccc3F)s2)cc1 [Example G1]	56%	–
–	–	–	−9%	8%	CN1CCN(C(=O)c2ccc(Nc3nc(N)c(C(=O)c4c(F)cccc4F)s3)cc2)CC1 [Example G2]	51%	–
–	–	–	−1%	4%	CN(Cc1ccccc1)C(=O)c1ccc(Nc2nc(N)c(C(=O)c3c(F)cccc3F)s2)cc1 [Example G3]	50%	–
–	–	–	−7%	4%	CCCCN(CCO)C(=O)c1ccc(Nc2nc(N)c(C(=O)c3c(F)cccc3F)s2)cc1 [Example G4]	53%	–
–	–	–	−23%	−3%	CN(C)C(=O)CN(C)C(=O)c1ccc(Nc2nc(N)c(C(=O)c3c(F)cccc3F)s2)cc1 [Example G5]	47%	–
–	–	–	−1%	10%	NC(=O)c1cccc(NC(=O)c2ccc(Nc3nc(N)c(C(=O)c4c(F)cccc4F)s3)cc2)c1 [Example G6]	47%	–
–	–	–	4%	5%	Nc1nc(Nc2ccc(C(=O)Nc3ccccc3)cc2)sc1C(=O)c1c(F)cccc1F [Example G7]	80%	–
–	–	–	−1%	−5%	Cc1ccc(NC(=O)c2ccc(Nc3nc(N)c(C(=O)c4c(F)cccc4F)s3)cc2)cc1Cl [Example G8]	50%	–
–	–	–	−1%	2%	CCCCN(CC#N)C(=O)c1ccc(Nc2nc(N)c(C(=O)c3c(F)cccc3F)s2)cc1 [Example G9]	46%	–
–	–	–	−4%	−2%	Nc1nc(Nc2ccc(C(=O)N3CCOCC3)cc2)sc1C(=O)c1c(F)cccc1F [Example G10]	51%	–
–	–	–	−12%	6%	CN(CCc1ccccc1)C(=O)c1ccc(Nc2nc(N)c(C(=O)c3c(F)cccc3F)s2)cc1 [Example G11]	49%	–
–	–	–	−14%	10%	Nc1nc(Nc2ccc(C(=O)N3CCN(CCCO)CC3)cc2)sc1C(=O)c1c(F)cccc1F [Example G12]	48%	–
–	–	–	−16%	0%	COCCN(C)C(=O)c1ccc(Nc2nc(N)c(C(=O)c3c(F)cccc3F)s2)cc1 [Example G13]	44%	–
–	–	–	9%	26%	COc1ccc(NC(=O)c2ccc(Nc3nc(N)c(C(=O)c4c(F)cccc4F)s3)cc2)cc1O [Example G14]	50%	–
–	–	–	−12%	4%	Cc1cccc(Cl)c1NC(=O)c1ccc(Nc2nc(N)c(C(=O)c3c(F)cccc3F)s2)cc1 [Example G15]	46%	–
–	–	–	−7%	1%	CCOc1cccc(NC(=O)c2ccc(Nc3nc(N)c(C(=O)c4c(F)cccc4F)s3)cc2)c1 [Example G16]	50%	–
–	–	–	2%	7%	CN(CCO)C(=O)c1ccc(Nc2nc(N)c(C(=O)c3c(F)cccc3F)s2)cc1 [Example G17]	45%	–
–	–	–	−10%	4%	CC1CN(C(=O)c2ccc(Nc3nc(N)c(C(=O)c4c(F)cccc4F)s3)cc2)CC(C)O1 (stereo not drawn) [Example G18]	41%	–
–	–	–	−7%	4%	COC(CN(C)C(=O)c1ccc(Nc2nc(N)c(C(=O)c3c(F)cccc3F)s2)cc1)OC [Example G19]	43%	–

Further lines, the molecule ahead of its results:

Compound	IC50 (HCT-116 cell line)	Ki (CDK2/cyclin A)	Ki (human CDK4/cyclin D3)	CDK2 % Inhibition at 0.03 μM (CDK2/cyclin A; at 0.03 μM)	CDK4 % Inhibition at 0.03 μM (human CDK4/cyclin D3; at 0.03 μM)	HCT-116 % Inhibition at 0.25 μM (HCT-116 cell line; HCT-116, at 0.25 μM)	further results
CC(=O)Nc1ccccc1C(=O)c1sc(Nc2ccc(C(=O)NC[C@@H]3CCCN3C)cc2)nc1N [Example A72, 4-{5-(2-Acetylamino-benzoyl)-4-amino-thiazol-2-ylamino}-N-(1-methyl-pyrrolidin-2S-ylmethyl)-benzamide]	> 500 nM	–	–	–	–	–	inhibition at 1 µM (CDK2/cyclin A): 0%; inhibition at 1 µM (human CDK4/cyclin D3): 0%
CN1CCC[C@H]1CNC(=O)c1ccc(Nc2nc(N)c(C(=O)c3ccccc3S(C)(=O)=O)s2)cc1 [Example A73, 4-{4-Amino-5-(2-methanesulfonyl-benzoyl)-thiazol-2-ylamino}-N-(1-methyl-pyrrolidin-2S-ylmethyl)-benzamide Trifluoroacetic Acid Salt]	> 5000 nM	1200 nM	36000 nM	–	–	–	–
CN1CCC[C@@]1(C)CNC(=O)c1ccc(Nc2nc(N)c(C(=O)c3c(F)cccc3F)s2)cc1 [Example A74, 4-{4-Amino-5-(2,6-difluoro-benzoyl)-thiazol-2-ylamino}-N-(1,2-dimethyl-pyrrolidin-2S-ylmethyl)-benzamide Trifluoroacetic Acid Salt]	1900 nM	9.8 nM	380 nM	–	–	–	–
CN1CC(CNC(=O)c2ccc(Nc3nc(N)c(C(=O)c4c(F)cccc4F)s3)cc2)C1 [Example A75, 4-[4-Amino-5-(2,6-difluoro-benzoyl)-thiazol-2-ylamino]-N-(1-methyl-azetidin-3-ylmethyl)-benzamide]	1900 nM	7.3 nM	51 nM	–	–	–	–
CN(C)C1(CNC(=O)c2ccc(Nc3nc(N)c(C(=O)c4c(F)cccc4F)s3)cc2)CCCC1 [Example A77, 4-{[4-Amino-5-(2,6-difluorobenzoyl)-1,3-thiazol-2-yl]amino}-N-{[1-(dimethylamino)cyclopentyl]methyl}benzamide]	120 nM	84 nM	5.2 nM	–	–	–	–
CN(C)C1(CNC(=O)c2ccc(Nc3nc(N)c(C(=O)c4c(F)cccc4F)s3)cc2)CCC1 [Example A78, 4-{[4-Amino-5-(2,6-difluorobenzoyl)-1,3-thiazol-2-yl]amino}-N-{[1-(dimethylamino)cyclobutyl]methyl}benzamide]	130 nM	110 nM	8.2 nM	–	–	–	–
NC(=O)CNC(=O)c1ccc(Nc2nc(N)c(C(=O)c3c(Cl)cccc3Cl)s2)cc1 [Example B1, 4-[4-Amino-5-(2,6-dichloro-benzoyl)-thiazol-2-ylamino]-N-carbamoylmethyl-benzamide]	18000 nM	65 nM	17 nM	–	–	–	–
Nc1nc(Nc2ccc(C(=O)NCCO)cc2)sc1C(=O)c1c(Cl)cccc1Cl [Example B2, 4-[4-Amino-5-(2,6-dichloro-benzoyl)-thiazol-2-ylamino]-N-(2-hydroxy-ethyl)-benzamide]	3600 nM	96 nM	18 nM	–	–	–	–
Nc1nc(Nc2ccc(C(=O)NCC(O)CO)cc2)sc1C(=O)c1c(Cl)cccc1Cl (stereo not drawn) [Example B3, 4-[4-Amino-5-(2,6-dichloro-benzoyl)-thiazol-2-ylamino]-N-(2,3-dihydroxy-propyl)-benzamide]	18000 nM	66 nM	8 nM	–	–	–	–
CN(C)CCNC(=O)c1ccc(Nc2nc(N)c(C(=O)c3c(Cl)cccc3Cl)s2)cc1 [Example B4, 4-[4-Amino-5-(2,6-dichloro-benzoyl)-thiazol-2-ylamino]-N-(2-dimethylamino-ethyl)-benzamide]	520 nM	220 nM	8 nM	–	–	–	–
Nc1nc(Nc2ccc(C(=O)N3CCN(c4ccccn4)CC3)cc2)sc1C(=O)c1c(F)cccc1F [Example C201]	–	–	–	–	–	–	CDK2 % Inhibition at 0.03 μM (CDK2/cyclin A; 0.03 μM compound): 6%; CDK4 % Inhibition at 0.03 μM (human CDK4/cyclin D3; 0.03 μM compound): 26%; HCT-116 % Inhibition at 0.1 μM (HCT-116 cell line; HCT-116 cells): 17%; HCT-116 % Inhibition at 0.25 μM (HCT-116 cell line; [1]): 43%
CCN(CC)C(=O)c1ccc(Nc2nc(N)c(C(=O)c3c(F)cccc3F)s2)cc1 [Example C232]	–	–	–	–	–	–	CDK2 % Inhibition at 0.03 μM (CDK2/cyclin A; 0.03 μM compound): 9%; CDK4 % Inhibition at 0.03 μM (human CDK4/cyclin D3; 0.03 μM compound): 19%; HCT-116 % Inhibition at 0.1 μM (HCT-116 cell line; HCT-116 cells): 9%; HCT-116 % Inhibition at 0.25 μM (HCT-116 cell line; [1]): 53%
Nc1nc(Nc2ccc(C(=O)N[C@@H]3CCN(Cc4ccccc4)C3)cc2)sc1C(=O)c1c(F)cccc1F [Example C365]	–	–	–	–	–	–	CDK2 % Inhibition at 0.03 μM (CDK2/cyclin A; 0.03 μM compound): 8%; CDK4 % Inhibition at 0.03 μM (human CDK4/cyclin D3; 0.03 μM compound): 22%; HCT-116 % Inhibition at 0.1 μM (HCT-116 cell line; HCT-116 cells): 34%; HCT-116 % Inhibition at 0.25 μM (HCT-116 cell line; [1]): 93%

— US6720346B2, “Thiazole benzamide derivatives and pharmaceutical compositions for inhibiting cell proliferation” (Agouron Pharmaceuticals, Inc., priority 2001, dated 2004)
